Measured values from ChEMBL document CHEMBL1201862, “PubChem BioAssay data set” (2004).
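Test compounds were applied to cells in 96-well plates for 48 hours at 5 doses. GI50 = concentration required for 50% inhibition of growth.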 Active and inactive are the calls of the source. No stated cut-off is given here; in the data, active = GI50 up to about 1.1 µM and inactive = higher.

Legend:
Test in all cases: NCI tumour cell line growth inhibition, 48 h
[1] = test system: EKVX
[2] = test system: 786-0
[3] = test system: MCF7
[4] = test system: RXF 393
[5] = test system: TK-10
[6] = test system: SNB-75
[7] = test system: PC-3
[8] = test system: RPMI-8226
[9] = test system: HCT-15
[10] = test system: NCI-H226
[11] = test system: SK-MEL-28
[12] = test system: SF-295
[13] = test system: SK-MEL-5
[14] = test system: Hs-578T
[15] = test system: NCI/ADR-RES
[16] = test system: UO-31
[17] = test system: OVCAR-3
[18] = test system: OVCAR-5
[19] = test system: HCC 2998
[20] = test system: NCI-H460

Row | Compound | GI50 [1] | GI50 [2] | GI50 [3] | GI50 [4] | GI50 [5] | GI50 [6] | GI50 [7] | GI50 [8] | GI50 [9] | GI50 [10] | GI50 [11] | GI50 [12] | GI50 [13] | GI50 [14] | GI50 [15] | GI50 [16] | GI50 [17] | GI50 [18] | GI50 [19] | GI50 [20]
1 | CCCC(=O)OC1C(CO)OC(n2cc(F)c(=O)[nH]c2=O)C1F (configuration not stated) | 67 µM (inactive) | 38.5 µM (inactive) | 0.604 µM (active) | > 100 µM (inactive) | > 100 µM (inactive) | 5.86 µM (inactive) | 92.3 µM (inactive) | 1.57 µM (inactive) | > 100 µM | > 100 µM (inactive) | > 100 µM (inactive) | 82 µM (inactive) | 53.2 µM (inactive) | 53.7 µM (inactive) | 11.3 µM (inactive) | > 100 µM (inactive) | 54.6 µM (inactive) | > 100 µM (inactive) | – | –
2 | COC(=O)c1c(O)ccc2c1c1cc3ccccc3c(O)c1n2CCc1ccc(OC)c(OC)c1 | > 100 µM (inactive) | 91.8 µM (inactive) | 65.8 µM (inactive) | > 100 µM (inactive) | > 100 µM (inactive) | – | 59.8 µM (inactive) | 18.9 µM (inactive) | 61.5 µM | > 100 µM (inactive) | 17.4 µM (inactive) | 96.8 µM (inactive) | 26.2 µM (inactive) | 31.4 µM (inactive) | 51.6 µM (inactive) | 84.1 µM (inactive) | 68.2 µM (inactive) | > 100 µM (inactive) | 27.4 µM (inactive) | 20.9 µM (inactive)
3 | CCOC(=O)c1c(SC(=O)c2ccc(C(C)(C)C)cc2)n(-c2ccccc2)c(=S)n(-c2ccccc2)c1=O | > 100 µM (inactive) | > 100 µM (inactive) | > 100 µM (inactive) | > 100 µM (inactive) | > 100 µM (inactive) | > 100 µM (inactive) | > 100 µM (inactive) | – | > 100 µM | > 100 µM (inactive) | > 100 µM (inactive) | > 100 µM (inactive) | – | > 100 µM (inactive) | > 100 µM (inactive) | – | > 100 µM (inactive) | > 100 µM (inactive) | > 100 µM (inactive) | > 100 µM (inactive)
4 | CSC1=C(C#N)C(=O)N(c2ccc(C)cc2)C(=S)C1C#N (configuration not stated) | > 100 µM (inactive) | > 100 µM (inactive) | > 100 µM (inactive) | > 100 µM (inactive) | > 100 µM (inactive) | 77.1 µM (inactive) | > 100 µM (inactive) | – | > 100 µM | > 100 µM (inactive) | > 100 µM (inactive) | > 100 µM (inactive) | > 100 µM (inactive) | > 100 µM (inactive) | > 100 µM (inactive) | – | – | > 100 µM (inactive) | > 100 µM (inactive) | > 100 µM (inactive)
5 | Clc1cc2nnn(C3CCCO3)c2cc1Cl (configuration not stated) | 66.1 µM (inactive) | > 100 µM (inactive) | > 100 µM (inactive) | > 100 µM (inactive) | > 100 µM (inactive) | 20 µM (inactive) | > 100 µM (inactive) | – | > 100 µM | > 100 µM (inactive) | – | > 100 µM (inactive) | 75.3 µM (inactive) | 62.7 µM (inactive) | > 100 µM (inactive) | – | > 100 µM (inactive) | > 100 µM (inactive) | > 100 µM (inactive) | > 100 µM (inactive)
6 | Cc1ccc(CC2(OCCN(C)C)CCC(C(C)(C)C)CC2)cc1 (configuration not stated) | 12.3 µM (inactive) | 1.88 µM (inactive) | 3.08 µM (inactive) | – | 6.87 µM (inactive) | 6.71 µM (inactive) | 3.89 µM (inactive) | 2.21 µM (inactive) | 4.63 µM | 5.28 µM (inactive) | 1.91 µM (inactive) | 4.54 µM (inactive) | 1.58 µM (inactive) | 8.04 µM (inactive) | 7.98 µM (inactive) | 5.33 µM (inactive) | 11.9 µM (inactive) | 3.3 µM (inactive) | 1.9 µM (inactive) | 1.79 µM (inactive)
7 | CC(C)(C)OC(=O)c1cnc(Cl)cn1 | 24.2 µM (inactive) | > 100 µM (inactive) | 23.5 µM (inactive) | – | > 100 µM (inactive) | > 100 µM (inactive) | 64.7 µM (inactive) | 23.7 µM (inactive) | 11.7 µM | 34.9 µM (inactive) | 37.8 µM (inactive) | > 100 µM (inactive) | 47.3 µM (inactive) | 35.2 µM (inactive) | 50 µM (inactive) | 6.19 µM (inactive) | – | 83.4 µM (inactive) | – | 49.7 µM (inactive)
8 | CN/C(=N\CCSCc1nc[nH]c1C)NC#N [CIMETIDINE] | > 10 µM (inactive) | > 100 µM (inactive) | > 100 µM (inactive) | > 100 µM (inactive) | – | 33.3 µM (inactive) | > 100 µM (inactive) | – | > 100 µM | > 100 µM (inactive) | > 100 µM (inactive) | > 100 µM (inactive) | > 100 µM (inactive) | > 100 µM (inactive) | > 100 µM (inactive) | > 100 µM (inactive) | > 100 µM (inactive) | > 100 µM (inactive) | > 100 µM (inactive) | > 100 µM (inactive)
